Results as given in patent US20210130339A1, “COMPOUNDS” (GLAXOSMITHKLINE INTELLECTUAL PROPERTY DEVELOPMENT LIMITED, priority 2017, published 2021).
Where “and” joins values, the source holds several entries; their conditions need not be identical. Identical values can stand only once.

Target: T1, recombinant full length LRRK2 (Homo sapiens, UniProt Q5S007)
T1 construct: A BacMam virus expressing full length recombinant LRRK2 was purchased from Invitrogen; host or cells: SH-SY5Y human neuroblastoma cells transduced with BacMam LRRK2 virus (MOI 50)
T1 sequence (Q5S007 whole entry): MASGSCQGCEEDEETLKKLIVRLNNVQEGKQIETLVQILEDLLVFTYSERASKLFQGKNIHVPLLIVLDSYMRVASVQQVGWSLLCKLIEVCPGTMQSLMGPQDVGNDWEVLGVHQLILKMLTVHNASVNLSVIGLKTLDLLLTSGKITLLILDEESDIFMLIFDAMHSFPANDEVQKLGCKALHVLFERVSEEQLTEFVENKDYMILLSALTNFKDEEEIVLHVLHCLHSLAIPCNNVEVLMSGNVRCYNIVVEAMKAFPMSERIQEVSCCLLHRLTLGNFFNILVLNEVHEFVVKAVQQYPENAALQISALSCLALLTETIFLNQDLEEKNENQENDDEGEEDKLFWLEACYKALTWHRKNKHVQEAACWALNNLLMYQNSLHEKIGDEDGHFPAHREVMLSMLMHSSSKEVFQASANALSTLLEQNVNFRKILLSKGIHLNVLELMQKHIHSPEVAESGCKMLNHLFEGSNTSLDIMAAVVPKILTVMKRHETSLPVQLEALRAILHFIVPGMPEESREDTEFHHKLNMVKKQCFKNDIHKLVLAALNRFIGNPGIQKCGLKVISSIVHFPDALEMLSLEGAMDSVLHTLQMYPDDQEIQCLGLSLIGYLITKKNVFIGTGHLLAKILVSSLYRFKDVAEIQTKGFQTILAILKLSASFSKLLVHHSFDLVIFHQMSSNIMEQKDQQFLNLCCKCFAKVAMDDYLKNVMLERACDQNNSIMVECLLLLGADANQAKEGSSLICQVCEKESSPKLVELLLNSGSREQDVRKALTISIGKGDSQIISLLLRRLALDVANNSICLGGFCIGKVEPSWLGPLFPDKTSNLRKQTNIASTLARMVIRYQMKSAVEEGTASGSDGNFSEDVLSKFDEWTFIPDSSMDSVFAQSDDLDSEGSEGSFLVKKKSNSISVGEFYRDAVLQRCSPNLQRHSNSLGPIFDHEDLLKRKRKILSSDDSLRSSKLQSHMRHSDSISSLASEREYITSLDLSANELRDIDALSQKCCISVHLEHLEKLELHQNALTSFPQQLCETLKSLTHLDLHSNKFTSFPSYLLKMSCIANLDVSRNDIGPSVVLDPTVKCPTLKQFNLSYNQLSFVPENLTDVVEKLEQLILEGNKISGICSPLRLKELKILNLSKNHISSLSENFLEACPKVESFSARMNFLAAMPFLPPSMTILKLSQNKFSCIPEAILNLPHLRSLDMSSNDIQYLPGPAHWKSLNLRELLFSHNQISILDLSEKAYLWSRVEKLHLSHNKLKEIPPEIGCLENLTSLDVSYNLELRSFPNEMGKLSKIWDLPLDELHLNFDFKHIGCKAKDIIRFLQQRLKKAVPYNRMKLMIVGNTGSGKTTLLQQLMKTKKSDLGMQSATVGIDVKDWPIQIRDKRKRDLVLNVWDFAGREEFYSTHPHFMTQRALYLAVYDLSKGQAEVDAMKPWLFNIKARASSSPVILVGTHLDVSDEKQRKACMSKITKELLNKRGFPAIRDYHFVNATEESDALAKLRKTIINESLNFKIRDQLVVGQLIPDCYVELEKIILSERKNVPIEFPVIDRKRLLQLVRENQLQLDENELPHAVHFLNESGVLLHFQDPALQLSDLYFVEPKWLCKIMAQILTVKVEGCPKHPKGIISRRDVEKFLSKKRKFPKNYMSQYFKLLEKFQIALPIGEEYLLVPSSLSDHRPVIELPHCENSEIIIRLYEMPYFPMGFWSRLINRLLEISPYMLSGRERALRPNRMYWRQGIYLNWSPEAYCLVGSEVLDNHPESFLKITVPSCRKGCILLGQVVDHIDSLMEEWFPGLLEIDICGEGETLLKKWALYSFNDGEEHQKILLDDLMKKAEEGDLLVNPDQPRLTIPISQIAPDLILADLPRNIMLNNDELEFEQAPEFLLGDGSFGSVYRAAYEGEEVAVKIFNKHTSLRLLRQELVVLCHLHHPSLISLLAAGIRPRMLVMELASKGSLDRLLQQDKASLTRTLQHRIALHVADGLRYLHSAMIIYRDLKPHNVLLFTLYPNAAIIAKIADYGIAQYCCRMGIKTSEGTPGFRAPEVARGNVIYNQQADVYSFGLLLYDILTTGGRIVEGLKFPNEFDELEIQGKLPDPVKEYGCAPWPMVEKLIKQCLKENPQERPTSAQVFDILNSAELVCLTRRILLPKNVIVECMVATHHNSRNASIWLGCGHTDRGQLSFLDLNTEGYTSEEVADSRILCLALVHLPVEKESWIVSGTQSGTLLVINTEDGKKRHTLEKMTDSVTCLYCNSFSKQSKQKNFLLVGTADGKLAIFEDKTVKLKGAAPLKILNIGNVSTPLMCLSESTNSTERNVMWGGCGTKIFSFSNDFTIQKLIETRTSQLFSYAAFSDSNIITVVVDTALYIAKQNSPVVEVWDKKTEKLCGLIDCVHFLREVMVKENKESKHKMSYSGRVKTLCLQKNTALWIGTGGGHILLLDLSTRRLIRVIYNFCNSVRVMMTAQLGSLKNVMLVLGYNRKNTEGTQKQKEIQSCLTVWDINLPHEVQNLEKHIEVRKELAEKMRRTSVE
Experiment: Recombinant cellular LRRK2 AlphaScreen assay
Type: cell-based
Conditions: LRRK2 Ser935 phosphorylation, SH-SY5Y cells over-expressing recombinant full length LRRK2; read-out: pIC50 in the recombinant cellular LRRK2 AlphaScreen assay (converted)
Excerpt: b. Recombinant Cellular LRRK2 AlphaScreen Assay
To determine the activity of compounds against LRRK2 kinase activity in cells, the observed LRRK2 kinase-dependent modulation of LRRK2 Ser 935 phosphorylation (Dzamko et al., 2010, Biochem. J. 430: 405-413) was utilized to develop a quantitative 384 well plate-based immunoassay of LRRK2 Ser935 phosphorylation in the human neuroblastoma cell line SH-SY5Y, engineered to over-express recombinant full length LRRK2 protein. A BacMam virus expressing full length recombinant LRRK2 was purchased from Invitrogen and amplified by inoculation of SF-9 cells at MOI 0.3 for 4-5 days in Sf-900 III SFM medium supplemented with 3% fetal bovine serum. Infected cell cultures were then centrifuged at 2000 g for 20 minutes, viral supernatant titer determined by anti-gp64 plaque assay and stored at 4° C. Affinity-purified anti-phospho LRRK2 Ser935 sheep polyclonal antibody (Dzamko et al., 2010, Biochem. J. 430: 405-413) was biotinylated by standard methods (PerkinElmer). Anti-LRRK2 rabbit polyclonal antibody was purchased from Novus Biologicals. AlphaScreen Protein A IgG Kit (including acceptor and donor beads) was purchased from Perkin Elmer. SH-SY5Y cells were grown in DMEM/F12 medium with 10% dialysed fetal bovine serum and harvested by treatment with 0.5% trypsin-EDTA for 5 minutes at 37° C. followed by centrifugation at 1000 rpm for 4 minutes. The cell pellet was resuspended in Opti-MEM reduced serum media (Invitrogen) at 200,000 cells/ml and mixed with the BacMam LRRK2 virus at MOI=50. 50 μl cell solutions were then dispensed to each well of a 384-well plate and incubated at 37° C., 5% CO2 for 24 hours. Serial dilutions of test compounds were prepared in Opti-MEM reduced serum media (Invitrogen) and 5.6 ul transferred from compound plate to cell assay plate to achieve a top final assay concentration of 10 uM. DMSO was used in certain wells as controls. Cells were incubated at 37° C., 5% CO2 for 60 minutes. The medium was then removed and cells lysed by addition of 20 ul cell lysis buffer (Cell Signaling Technology) and incubation at 4° C. for 20 minutes. 10 ul of antibody/acceptor bead mix [(1/1000 biotinylated-pS935 LRRK2 antibody, 1/1000 total-LRRK2 antibody, 1/100 Acceptor beads in AlphaScreen detection buffer (25 mM Hepes (pH 7.4), 0.5% Triton X-100, 1 mg/ml Dextran 500 and 0.1% BSA)] was then added to each well and plates incubated for 2 hours at ambient temperature in the dark. 10 μl of donor beads solution (1/33.3 donor beads in AlphaScreen detection buffer) was then added to each well. Following incubation for a further 2 hours at ambient temperature in the dark, plates were read on an EnVision™ plate reader at emission 520-620 nm with excitation 680 nm. Dose response curve data was based on sigmoidal dose-response model.

SMILES: COc1nc(N2CCNC(=O)C2)cc(-n2ncc3cc(C)c(C4CCN(C5CCOC5)CC4F)cc32)n1 (single isomer, unassigned) [Example E53, 4-(6-(6-(3-Fluoro-1-(tetrahydrofuran-3-yl)piperidin-4-yl)-5-methyl-1H-indazo-1-yl)-2-methoxypyrimidin-4-yl)piperazin-2-one]
- IC50: ≤ 10 nM

SMILES: Cc1nc(N[C@H]2C[C@H](O)C2)cc(-n2ncc3cc(C)c(C4CCN(C5CCOC5)CC4)cc32)n1 (single isomer, unassigned) [Example E132, trans-3-((2-methyl-6-(5-methyl-6-(1-(tetrahydrofuran-3-yl)piperidin-4-yl)-1H-indaz-ol-1-yl)pyrimidin-4-yl)amino)cyclobutanol]
- IC50: ≤ 1000 nM

SMILES: COc1nc(N2CC[C@@H](O)C2)cc(-n2ncc3cc(C)c(C4CCN(C5CCOC5)CC4)cc32)n1 (single isomer, unassigned) [Example E19]
- IC50: ≤ 100 nM

SMILES: Cc1nc(N2CCO[C@H](CO)C2)cc(-n2ncc3cc(Cl)c(C4CCN(C5CCOC5)CC4)cc32)n1 (single isomer, unassigned) [Example E25]
- IC50: ≤ 100 nM

SMILES: COc1nc(N2CCO[C@H](CO)C2)cc(-n2ncc3cc(C)c(C4CCN(C5CCOC5)CC4F)cc32)n1 (single isomer, unassigned) [Example E123]
- IC50: ≤ 10 nM

SMILES: Cc1nc(N2CCO[C@H](CO)C2)cc(-n2ncc3cc(C)c(C4CCN(C5CCOC5)CC4F)cc32)n1 (single isomer, unassigned) [Example E104]
- IC50: ≤ 100 nM

SMILES: Cc1nc(N2CCO[C@@H](CO)C2)cc(-n2ncc3cc(C)c(C4CCN(C5CCOC5)CC4F)cc32)n1 (single isomer, unassigned) [Example E101]
- IC50: ≤ 100 nM

SMILES: Cc1nc(N[C@@H]2CCOC2)cc(-n2ncc3cc(C)c(C4CCN(C5CCOC5)CC4)cc32)n1 (stereo partly drawn) [Example E143, 2-methyl-6-(5-methyl-6-(1-(tetrahydrofuran-3-yl)piperidin-4-yl)-1H-indazol-1-yl)-N—((R)-tetrahydrofuran-3-yl)pyrimidin-4-amine]
- IC50: ≤ 1000 nM

SMILES: [2H]C1([2H])CC(c2cc3c(cnn3-c3cc(N4CCO[C@@H](CO)C4)nc(C)n3)cc2C)CC([2H])([2H])N1[C@H]1CCOC1 [Example E96, ((R)-4-(2-methyl-6-(5-methyl-6-(1-((S)-tetrahydrofuran-3-yl)piperidin-4-yl-2,2,6,6-d4)-1H-indazol-1-yl)pyrimidin-4-yl)morpholin-2-yl)methanol]
- IC50: ≤ 100 nM and 100 nM

SMILES: Cc1nc(N[C@H]2CCOC2)cc(-n2ncc3cc(C)c(C4CCN(C5CCOC5)CC4)cc32)n1 (stereo partly drawn) [Example E144, 2-methyl-6-(5-methyl-6-(1-(tetrahydrofuran-3-yl)piperidin-4-yl)-1H-indazol-1-yl)-N—((S)-tetrahydrofuran-3-yl)pyrimidin-4-amine]
- IC50: ≤ 1000 nM

SMILES: COc1nc(N2CC(C(C)O)C2)cc(-n2ncc3cc(C)c(C4CCN(C5CCOC5)CC4)cc32)n1 (single isomer, unassigned) [Example E97, 1-(1-(2-methoxy-6-(5-methyl-6-(1-(tetrahydrofuran-3-yl)piperidin-4-yl)-1H-indazol-1-yl)pyrimidin-4-yl)azetidin-3-yl)ethanol]
- IC50: ≤ 100 nM

SMILES: COc1nc(N2CCO[C@H](CO)C2)cc(-n2ncc3cc(C)c(C4CCN(C5CCOC5)CC4F)cc32)n1 (single isomer, unassigned) [Example E122]
- IC50: ≤ 10 nM

SMILES: COc1nc(N2CC(C(C)O)C2)cc(-n2ncc3cc(C)c(C4CCN(C5CCOC5)CC4)cc32)n1 (single isomer, unassigned) [Example E100, 1-(1-(2-methoxy-6-(5-methyl-6-(1-(tetrahydrofuran-3-yl)piperidin-4-yl)-1H-indazol-1-yl)pyrimidin-4-yl)azetidin-3-yl)ethanol]
- IC50: ≤ 1000 nM

SMILES: COc1nc(N2CC(O)C2)cc(-n2ncc3cc(C)c(C4CCN(C5CCOC5)CC4F)cc32)n1 (single isomer, unassigned) [Example E5, cis-1-(6-(6-(3-Fluoro-1-(tetrahydrofuran-3-yl)piperidin-4-yl)-5-methyl-1H-indazol-1-yl)-2-methoxypyrimidin-4-yl)azetidin-3-ol]
- IC50: ≤ 10 nM and 5.01 nM

SMILES: COc1nc(N2CC(C(C)O)C2)cc(-n2ncc3cc(C)c(C4CCN(C5CCOC5)CC4)cc32)n1 (single isomer, unassigned) [Example E98, 1-(1-(2-methoxy-6-(5-methyl-6-(1-(tetrahydrofuran-3-yl)piperidin-4-yl)-1H-indazol-1-yl)pyrimidin-4-yl)azetidin-3-yl)ethanol]
- IC50: ≤ 100 nM

SMILES: COc1nc(N2CC(C(C)O)C2)cc(-n2ncc3cc(C)c(C4CCN(C5CCOC5)CC4)cc32)n1 (single isomer, unassigned) [Example E99, 1-(1-(2-methoxy-6-(5-methyl-6-(1-(tetrahydrofuran-3-yl)piperidin-4-yl)-1H-indazol-1-yl)pyrimidin-4-yl)azetidin-3-yl)ethanol]
- IC50: ≤ 1000 nM

SMILES: [2H]C1(N2CCC(c3cc4c(cnn4-c4cc(N5CCO[C@@H](CO)C5)nc(C)n4)cc3C)CC2)CCOC1 (single isomer, unassigned) [Example E35]
- IC50: 200 nM

SMILES: Cc1nc(N2CCO[C@@H](CO)C2)cc(-n2ncc3cc(Cl)c(C4CCN(C5CCOC5)CC4)cc32)n1 (single isomer, unassigned) [Example E129]
- IC50: ≤ 1000 nM

SMILES: Cc1nc(N2CCO[C@H](CO)C2)cc(-n2ncc3cc(C)c(C4CCN(C5CCOC5)CC4F)cc32)n1 (single isomer, unassigned) [Example E103]
- IC50: ≤ 100 nM

SMILES: Cc1nc(OC2CC(O)C2)cc(-n2ncc3cc(C)c(C4CCN(C5CCOC5)CC4)cc32)n1 (single isomer, unassigned) [Example E145, 3-((2-methyl-6-(5-methyl-6-(1-(tetrahydrofuran-3-yl)piperidin-4-yl)-1H-indazol-1-yl)pyrimidin-4-yl)oxy)cyclobutanol]
- IC50: ≤ 1000 nM

SMILES: COc1nc(N2CCOC(C(C)O)C2)cc(-n2ncc3cc(C)c(C4CCN(C5CCOC5)CC4)cc32)n1 (single isomer, unassigned) [Example E21, 1-(4-(2-Methoxy-6-(5-methyl-6-(1-(tetrahydrofuran-3-yl)piperidin-4-yl)-1H-indazol-1-yl)pyrimidin-4-yl)morpholin-2-yl)ethanol]
- IC50: ≤ 100 nM

SMILES: [2H]C1(N2CCC(c3cc4c(cnn4-c4cc(N5CCO[C@@H](CO)C5)nc(C)n4)cc3C)CC2)CCOC1 (single isomer, unassigned) [Example E36]
- IC50: 158 nM

SMILES: Cc1nc(N2CCO[C@H](CO)C2)cc(-n2ncc3cc(C)c(C4CCN(C5CCOC5)CC4F)cc32)n1 (single isomer, unassigned) [Example E105]
- IC50: ≤ 100 nM

SMILES: COc1nc(N2CC[C@H](O)C2)cc(-n2ncc3cc(C)c(C4CCN(C5CCOC5)CC4)cc32)n1 (single isomer, unassigned) [Example E17]
- IC50: ≤ 100 nM

SMILES: Cc1nc(N2CC(C)OC(CO)C2)cc(-n2ncc3cc(C)c(C4CCN(C5CCOC5)CC4)cc32)n1 (single isomer, unassigned) [Example E60, (6-Methyl-4-(2-methyl-6-(5-methyl-6-(1-(tetrahydrofuran-3-yl)piperidin-4-yl)-1H-indazol-1-yl)pyrimidin-4-yl)morpholin-2-yl)methanol]
- IC50: ≤ 100 nM

SMILES: COc1nc(N2CC(O)C2)cc(-n2ncc3cc(Cl)c(C4CCN(C5CCOC5)CC4)cc32)n1 (single isomer, unassigned) [Example E29, 1-(6-(5-Chloro-6-(1-(tetrahydrofuran-3-yl)piperidin-4-yl)-1H-indazol-1-yl)-2-methoxy-pyrimidin-4-yl)azetidin-3-ol]
- IC50: ≤ 10 nM

SMILES: COc1nc(N2CC(C)(O)C2)cc(-n2ncc3cc(C)c(C4CCN(C5CCOC5)CC4)cc32)n1 (single isomer, unassigned) [Example E11, 1-(2-Methoxy-6-(5-methyl-6-(1-(tetrahydrofuran-3-yl)piperidin-4-yl)-1H-indazol-1-yl)pyrimidin-4-yl)-3-methylazetidin-3-ol]
- IC50: ≤ 100 nM
